Data on two compounds can be found in patent publication US7632807B2, “Cyclosporin alkynes and their utility as pharmaceutical agents” (Albany Molecular Research, Inc., priority 2004, dated 2009).

In brackets after ≈: the same amount, converted by molar mass. Entries after “also recorded” stand apart in the source; their conditions may differ.

The conditions of assay [1]: literature value (Rich et al. 1990); cited from earlier work.
The subject of assay [2] is concanavalin A-stimulated murine splenocytes. Description: Concanavalin A (ConA)-stimulated murine splenocyte assay. Type of assay: cell-based, mouse (BALB/c). The protocol:
Concanavalin A—Stimulated Splenocyte Assay
Male BALB/c mice, at 5 to 7 weeks of age, were sacrificed by CO2 inhalation. Spleens were removed and dissociated by pushing through a nylon cell strainer. The splenocytes were washed in RPMI 1640/5% fetal calf serum (FCS) and pelleted at 400×g. Red blood cells were then lysed by resuspending the cell pellet in ACK lysis buffer (150 mM NH4Cl, 1 mM KHCO3, 0.1 mM EDTA, 3 mL per spleen) for 10 min at room temperature. After pelleting at 400×g, the cells were washed by resuspending in RPMI 1640/5% FCS and repelleting. The cell pellet was resuspended in RPMI 1640/5% FCS and again passed through a cell strainer to remove cell aggregates. The cells were then counted and adjusted to 2×10^6 cells/ml in RPMI 1640/10% FCS/[…] 2-mercaptoethanol. Cell viability was assessed by Trypan blue staining. […] The cells were cultured in a 37° C. CO2 incubator for 2 days and then pulsed with 1 μCi of [^3H]thymidine for 6 hours. Cells were harvested onto filtermats with a TomTec 96 well plate harvester and lysed with H2O. The filtermat and scintillation fluid were sealed in a plastic sleeve. [^3H]thymidine incorporation was measured with a Wallac Trilux plate counter. Initial screens were done at a fixed value of 100 ng/ml test compound. IC50s were calculated from 7 point concentration-response curves using graphPad software.

Take `CC#CC[C@@H](C)[C@@H](O)[C@H]1C(=O)N[C@@H](CC)C(=O)N(C)CC(=O)N(C)[C@@H](CC(C)C)C(=O)N[C@@H](C(C)C)C(=O)N(C)[C@@H](CC(C)C)C(=O)N[C@@H](C)C(=O)N[C@H](C)C(=O)N(C)[C@@H](CC(C)C)C(=O)N(C)[C@@H](CC(C)C)C(=O)N(C)[C@@H](C(C)C)C(=O)N1C` [known cyclosporin alkyne]: the “relative immunosuppressive activity, compared to cyclosporin A” value in assay [1] is given as 10%. What is called IC50 is the concentration needed to halve the response being measured. For `C#CC#CC[C@@H](C)[C@@H](O)[C@H]1C(=O)N[C@@H](CC)C(=O)N(C)CC(=O)N(C)[C@@H](CC(C)C)C(=O)N[C@@H](C(C)C)C(=O)N(C)[C@@H](CC(C)C)C(=O)N[C@@H](C)C(=O)N[C@H](C)C(=O)N(C)[C@@H](CC(C)C)C(=O)N(C)[C@@H](CC(C)C)C(=O)N(C)[C@@H](C(C)C)C(=O)N1C` [Example 25, cyclosporine diyne], in assay [2] (FIG. 1, ConA-stimulated murine splenocyte assay), the “immunosuppressive potency compared to cyclosporin A” value is “enhanced or similar potency in immunosuppression; also recorded: two times more potent over cyclosporin A”. Moreover, in assay [2] (novel cyclosporin alkyne analogue, ConA-stimulated BALB/c splenocytes, [3H]thymidine incorporation, 7 point concentration-response curves), the “IC50” value was determined as 0.012 µg/mL (≈ 9.91 nM).
